The test system of series [1] is dark-adapted pupil diameter (miosis). As to the kind of experiment: Methadone pharmacodynamics: dark-adapted pupil diameter change. Conditions: for Maximum miosis / AUEC0-∞: mean ± SD, n=11; for AUEC0-∞: miosis. The class given is in vivo, human.
For series [2] the following is noted: human, in vivo, po.
For series [3] the following is noted: cited from earlier work.
The next series in a line: Intravenous. The settings on record: human, in vivo, 6 mg, mean ± SD, n=12; for AUC(0-t): AUC0-96, IV methadone HCl 6.0 mg; for AUC(0-inf): AUC0-∞.
Another series is described as follows: Oral. Conditions: human, in vivo, 11.2 mg; for AUC(0-t): AUC0-96, oral d5-methadone HCl 11.2 mg; for AUC(0-t) / AUC(0-inf) / Cmax: mean ± SD, n=12; for AUC(0-inf): AUC0-∞; for AUC(0-inf) / Cmax / Tmax: oral d5-methadone HCl 11.2 mg; for Tmax: median (range).
For another series, the system named is P-gp. Conditions: oral fexofenadine P-gp probe, cited from earlier work.
Setting [4] is: 6.0 mg IV plus 11.2 mg oral methadone HCl.
The mark [5] stands for this setting: 6.0 mg IV plus 11.2 mg oral methadone HCl, acute ritonavir.
[6] abbreviates: 6.0 mg IV plus 11.2 mg oral methadone HCl, control.
Setting [7] is: 6.0 mg IV plus 11.2 mg oral methadone HCl, steady-state ritonavir.

“And” between values parts separate entries of the source, which are not always exact repeats. Equal entries are not always repeated. Where two headings read alike, the source gives them in different places.

As a reminder, the AUC(0-t) is exposure summed from dosing to a finite time, without extrapolation to infinity. For orientation: AUC(0-inf) means the area under the concentration-time curve extrapolated to infinity. The low end stands for less exposure, the high end for more exposure. The term Cmax denotes the highest concentration seen after dosing. Usually Tmax stands for the time from dosing to the highest level.

Consider `CCC(=O)C(CC(C)N(C)C)(c1ccccc1)c1ccccc1` (stereo not shown) [methadone], for which, in series [1] (setting [4]), the “time at which miosis was first detectable (first time point)” value was 2 min and the “time of peak miosis effects” value lay within 5 to 10 min. In addition, in series [1] (setting [5]), the Maximum miosis was determined as 5.1 ± 1.0 mm and the “AUEC0-∞” value is reported as 135 ± 61 mm•hr. Besides, in series [1] (setting [6]), the Maximum miosis was determined as 4.3 ± 1.2 mm and the “AUEC0-∞” value is reported as 117 ± 61 mm•hr. In addition, in series [1] (setting [7]), the Maximum miosis is listed as 4.2 ± 0.6 mm and the “AUEC0-∞” value was 91 ± 46 mm•hr. Besides, in series [1] (in vivo), the Emax was 3.0 ± 0.2 mm and 4.2 ± 0.2 ^b mm and 3.3 ± 0.1 ^c mm. For the same compound, the “time of second plasma concentration peak” value in series [2] is 3 to 4 h. Also, in series [3] (100mg ritonavir alone for 7d), the “effect on plasma racemic methadone Cmax and AUC0-24” value is recorded as “no effect”. For the same compound, in series [3] (patients on stable methadone doses, no withdrawal symptoms), the “decreases in methadone plasma concentrations after ritonavir initiation” value is 30-50%.
As for `CCC(=O)C(C[C@H](C)N(C)C)(c1ccccc1)c1ccccc1` [S-methadone], the AUC(0-t) in “Intravenous” (acute ritonavir) was 215 ± 93 ng·h/mL; in the series “Intravenous” (control) it was 379 ± 164 ng·h/mL; in “Intravenous” (steady-state ritonavir), 187 ± 107 ng·h/mL; in “Oral” (acute ritonavir), 336 ± 170 ng·h/mL; in the series “Oral” (control) it was 580 ± 253 ng·h/mL; in “Oral” (steady-state ritonavir), 308 ± 161 ng·h/mL. The AUC(0-inf) in “Intravenous” (IV methadone HCl 6.0 mg, acute ritonavir) is 241 ± 120 ng·h/mL; in “Intravenous” (IV methadone HCl 6.0 mg, steady-state ritonavir), 211 ± 129 ng·h/mL; in the series “Oral” (acute ritonavir) it was 388 ± 233 ng·h/mL; in the series “Oral” (control), 672 ± 335 ng·h/mL; in “Oral” (steady-state ritonavir) it was 340 ± 205 ng·h/mL. For the same compound, the Cmax stood at 57 ± 29 ng/mL in the series “Intravenous” (Cmax, IV methadone HCl 6.0 mg, steady-state ritonavir); 13 ± 6 ng/mL in the series “Oral” (acute ritonavir); 21 ± 8 ng/mL in the series “Oral” (control). In addition, the Tmax in “Oral” (acute ritonavir) came out at 4 h; in “Oral” (control) it was 2 h; in “Oral” (steady-state ritonavir), 4 h.
With `CC(C)c1nc(CN(C)C(=O)N[C@H](C(=O)N[C@@H](Cc2ccccc2)C[C@H](O)[C@H](Cc2ccccc2)NC(=O)OCc2cncs2)C(C)C)cs1` [ritonavir], the “increase in fexofenadine plasma AUC” value in the series on P-gp (acute ritonavir) is 2.8 fold; in the series with P-gp (steady-state ritonavir), 1.4 fold.

The values above are taken from article PMC3583342 (Clinical pharmacology and therapeutics, 2008).
